Measurements as given in patent US5230998A, “Method for the prescreening of drugs targeted to the V3 hypervariable loop of the HIV-1 envelope glycoprotein gp 120” (priority 1991, dated 1993).
Converted amounts (≈) assume the structure as drawn.

Experiments:
[1] = target: T1, HIV-1 IIIB glycoprotein gp120 V3 hypervariable loop (Human immunodeficiency virus type 1 BH10, UniProt P03375); experiment: Inhibition of the reaction between HIV-1 IIIB gp120 and three distinct antibodies reacting with the V3 hypervariable loop (FIGS. 8-11); assay type: binding; conditions: 60 μg/ml, metal complexes versus uncomplexed
T1 construct: b180 also mentions the V3 loop peptide
Procedure: (§1) FIG. 8 is a bar graph depicting the inhibitory effect of chlorine6 (60 μg/ml) and metal chelates thereof on the reaction between HIV-1 IIIB glycoprotein gp120 and three distinct antibodies reacting with the V3 hypervariable loop of this glycoprotein. The antisera used were rabbit antiserum to a synthetic peptide corresponding to the V3 hypervariable loop of HIV-1 clone BH10, serum of a chimpanzee immunized with V3 hypervariable loop peptides of distinct HIV-1 isolates and monoclonal antibodies (McAb NEA 9305) raised against residues (315-329) of the V3 hypervariable loop of HIV-1 BH10 (Neurath et al (1990), Molec. Immunol., 27, 539-549).
FIG. 9 is a bar graph depicting the inhibitory effect of deuteroporphyrin IX,2-vinyl,4-hydroxymethyl (60 μg/ml) and metal chelates thereof on the reaction between HIV-1 IIIB glycoprotein gp120 and three distinct antibodies reacting with the V3 hypervarible loop of this glycoprotein. The antisera used were rabbit antiserum to a synthetic peptide corresponding to the V3 hypervariable loop of HIV-1 clone BH10, serum of a chimpanzee immunized with V3 hypervariable loop peptides of distinct HIV-1 isolates and monoclonal antibodies (McAb NEA 9305) raised against a synthetic peptide corresponding to residues (315-329) of the V3 hypervariable loop of HIV-1 BH10 (Neurath et al (1990), Molec. Immunol 27, 539-549).
as §1, with “FIG. 10” for “FIG. 8”, “of meso-tetra (4-carboxyphenyl)porphine” for “of chlorine6”, “against a synthetic peptide corresponding to” for “against”, “HIV-1 BH10.” for “HIV-1 BH10”
as §1, with “FIG. 11” for “FIG. 8”, “of uroporphyrin III” for “of chlorine6”, “against a synthetic peptide corresponding to” for “against”, “et al,” for “et al”, “Molec. lmmunol.,” for “Molec. Immunol.,”, “27, 539-549)” for “27, 539-549).”
Monoclonal antibodies (McAbs) recognizing the V3 hypervariable loop of HIV-1 BH 10 (McAb 9305 from DuPont, Wilmington, Del.) and an antiserum from a chimpanzee immunized with a mixture of V3 hypervariable loop peptides from 21 distinct HIV1 isolates (Girard, M., Kieny, M-P., Pinter, A., Barre-Sinoussi, F., Nara, P., Kolbe, H., Kusumi, K., Chaput, A., Reinhart, T., Muchmore, E, Ronco, J., Kaczorek, M., Gomard, E, Gluckman, JC., Fultz, P. N. (1991), "Immunization of Chimpanzees Confers Protection Against Challenge with Human Immunodeficiency Virus", Proc. Natl. Acad. Sci. USA, 88, 542-546) were also used for studies on the inhibitory affect of ATA on the reaction between these antibodies and gp120, using ELISA tests. These tests were carried out similarly as RIA, except that sodium merthiolate (1 mg/ml) was added to the buffers instead of NaN3, and goat antimouse IgG antibodies (Boehringer Mannheim Biochemicals, Indianapolis, Ind.) and goat anti-human IgG antibodies (Sigma, St. Louis, Mo.), respectively, each linked to horseradish peroxidase were used as second antibodies at final dilutions of 1:1,000 in phosphate-buffered saline (PBS) containing 10% goat serum and 0.1% Tween 20. […]

[2] = test system: gp120 expressed on the surface of HIV-1-infected cells; conditions: literature; cited from earlier work
[3] = target: T2, HIV-1 gp120 V3 hypervariable loop (Human immunodeficiency virus type 1 group M subtype B, UniProt P03375); experiment: biochemical; assay type: binding; on inhibitory activity: key: Chemicals with inhibitory activity are indicated by +
T2 construct: Polystyrene plates coated with recombinant gp120 and gp160, respectively; purchased American Bio-Technologies, Inc., Cambridge, Mass; host or cells: baculovirus expression system
Procedure: Wells of 96 well polystyrene plates (Immulon 2, Dynatech Laboratories, Inc., Chantilly, Va.) were coated with synthetic peptides (200 μl; 20μg/ml in 0.1 M Tris-HCl, pH 8.8) overnight at 20° C. The peptides were from the sequence of HIV-1, clone BH 10 envelope glycoproteins gp120 and gp41 (Neurath, A. R., Strick, N., and Lee, E. Y. S. (1990), "B-cell Epitope Mapping of Human Immunodeficiency virus (HIV-1) Envelope Glycoprotein with Long (19 to 36-residue) Synthetic Peptides", J. Gen. Virol., 71., 85-95) and from V3 hypervariable loops of 21 distinct HIV-1 isolates (clones) Neurath, A. R., and Strick, N., (1990), "Confronting the Hypervariability of an Immunodominant Epitope Eliciting Virus Neutralizing Antibodies from the Envelope Glycoprotein of the Human Immunodeficiency Virus Type 1 (HIV-1)", Molec. Immunol., 27, 539-549. The latter peptides corresponded to full-length V3 loops generated by disulfide bonds between N- and C- terminal cysteine residues. After washing with 0.14 M NaCl, 0.01 M Tris, 0.02% NaN3 (TS), the wells were postcoated with a mixture of bovine serum albumin (BSA) and gelatine (10 and 2.5 mg/ml, respectively) in TS. BSA was omitted from the postcoating solution for RIA tests in which antibodies to ATA were used. Polystyrene plates coated with recombinant gp120 and gp160, respectively, (500 ng/well; from American Bio-Technologies, Inc., Cambridge, Mass. and MicroGeneSys, Inc., West Haven, Conn., respectively) were also used for RIA and ELISA tests.
To define sites on gp120/gp41 reacting with ATA, the inhibitory effect of this compound was studied by RIA tests using gp120- and gp160-coated wells, respectively, and antisera (final dilutions 1:150) against synthetic peptides from the entire sequence of gp120/gp41 of HIV-1 BH 10. The preparation and biological properties of these antisera were described elsewhere (Neurath et al., (1990), J. Gen. Virol., 71, 85-95). Each of the antisera was diluted in a mixture of fetal bovine serum and goat serum (9:1) containing 0.1% Tween 20, adjusted to pH 8. ATA (final concentration 50 μg/ml) was added in one set of assays, but was omitted from a parallel set. After incubation overnight at 25° C., the plates were washed with TS. Attached rabbit IgG was detected using ^125 I-labeled anti-rabbit IgG, as described before (Neurath et al., 1990, J. Gen. Virol., 71, 85-95). Similarly, the inhibitory effect of ATA on the reaction of peptides derived from gp120/gp41 and of peptides derived from V3 hypervariable loops from gp120 of distinct HIV-1 isolates with the respective homologous anti-peptide antisera was studied. In the latter case, antisera were diluted 1:1,000 for the assays.
The inhibitory effect of ATA and of other compounds on the reaction between antibodies with predetermined specificity and gp120 (or synthetic peptides derived from it) was determined from the formula: [formula] An analogous formula was used to calculate the percentage of inhibition from optical density readings resulting from ELISA tests.
Chemicals other than ATA were screened for inhibitory activity essentially as described above. […] Chemicals with inhibitory activity established by the respective immunoassays were screened further for antiviral activity.
Commercially available ATA is a mixture of monomers and polymers of distinct molecular masses (Gonzalez et al., (1979) Biochem. Biophys. Acta, 562, 534-545); Cushman et al., (1991), J. Chem., 34, 329-337). The monomers [molecular mass (M.W.)=422.4 daltons] were separated from the polymers. ATA (20 mg/ml in the form of free acid neutralized with 0.4 M NaOH) was dialyzed against H2 O in a dialysis membrane with a molecular mass cutoff of 500 daltons.

HIV-1 = experiment: Antiviral activity: inhibition of P24 production in MT-2 cells; assay type: cell-based, HIV-1 IIIB; set-up: inhibition: dose or concentration left out as unconfirmed; conditions: Human immunodeficiency virus 1, MT2, Table 1
Procedure: All chemicals were tested at serial two-fold dilutions (1.25-80 μg/ml, prepared from a stock solution containing 10 mg/ml in dimethylsulfoxide). The chemicals were obtained from Aldrich, Milwaukee, Wis. or were synthesized. Their inhibitory activity was determined by two distinct methods, based on inhibition of synthesis of core protein P24 and on protection by the chemicals of cells against the cytopathic effect of HIV-1 (colorimetric method) respectively.
The chemicals were serially diluted in RPMI 1640 medium without phenol red (GIBCO, Grand Island, N.Y.) containing 10% fetal calf serum (FCS). Aliquots of the diluted solutions were added to wells of 96 well plates and mixed with an equal volume of diluted HIV-1 [multiplicity of infection (MOI) =0.0045]. After incubation for 1 hour at 37° C., 25 μl of polybrene (1 μg/ml) treated MT-2 cells (Harada, S., Koyanagi, Y., Yamamoto, N., (1985), "Infection of HTLV-III/LAV in HTLV-I-carrying Cells MT-2 and MT-4 and Application in a Plaque Assay", Science, 229, 563-566), (5,000 cells/well) were added. The mixture was incubated for 1 hour at 37° C. and the volume was adjusted with RPMI 1640 medium with 10% FCS to 200 μl. On the fourth day after incubation at 37° C., 100 μl of culture supernatants were collected from each well and equal volumes of fresh medium were added to the wells. The supernatants were assayed for P24 using a kit from Coulter Immunology (Hialeah, Fla.). On the sixth day, an indicator XTT tetrazolium dye (1 mg/ml; 50 μl/well; PolySciences, Inc., Warrington, Penna.) was added to the cells. After 4 hours, intracellular formazan was determined colorimetrically at 450 nm.
^c Chemicals with inhibitory activity in ELISA (RIA) tests were teste
^d EC50 = concentration at which the production of P24 was […]

| Compound | inhibitory activity on the interaction between the V3 hypervariable loop of HIV-1-IIIB and antisera [1] | also measured |
| --- | --- | --- |
| C=Cc1c(C)c2cc3nc(cc4[n-]c(cc5nc(cc1[n-]2)C(C)=C5CO)c(C)c4CCC(=O)O)C(CCC(=O)O)=C3C.[Fe+2] | substantially lower than that of the uncomplexed substance or of its Zn derivative | – |
| O=C(O)c1ccc(-c2c3nc(c(-c4ccc(C(=O)O)cc4)c4ccc([n-]4)c(-c4ccc(C(=O)O)cc4)c4nc(c(-c5ccc(C(=O)O)cc5)c5ccc2[n-]5)C=C4)C=C3)cc1.[Mn+2] | drastically reduced inhibitory activity | – |
| heparin | – | inhibition of the reaction of gp120 on infected cells with monoclonal anti-gp120 antibodies [2]: inhibit the reaction of gp120 expressed on the surface of HIV-1-infected cells with monoclonal anti-gp120 antibodies |
| O=C(O)c1ccc(-c2c3nc(c(-c4ccc(C(=O)O)cc4)c4ccc([n-]4)c(-c4ccc(C(=O)O)cc4)c4nc(c(-c5ccc(C(=O)O)cc5)c5ccc2[n-]5)C=C4)C=C3)cc1.[Cr+2] | drastically reduced inhibitory activity | – |
| O=C(O)c1ccc(-c2c3nc(c(-c4ccc(C(=O)O)cc4)c4ccc([n-]4)c(-c4ccc(C(=O)O)cc4)c4nc(c(-c5ccc(C(=O)O)cc5)c5ccc2[n-]5)C=C4)C=C3)cc1.[Cu+2] | drastically reduced inhibitory activity | – |
| O=C(O)c1ccc(-c2c3nc(c(-c4ccc(C(=O)O)cc4)c4ccc([n-]4)c(-c4ccc(C(=O)O)cc4)c4nc(c(-c5ccc(C(=O)O)cc5)c5ccc2[n-]5)C=C4)C=C3)cc1.[Ni+2] | drastically reduced inhibitory activity | – |
| pentosan polysulfate | – | inhibition of the reaction of gp120 on infected cells with monoclonal anti-gp120 antibodies [2]: inhibit the reaction of gp120 expressed on the surface of HIV-1-infected cells with monoclonal anti-gp120 antibodies |
| O=C(O)c1ccc(-c2c3nc(c(-c4ccc(C(=O)O)cc4)c4ccc([n-]4)c(-c4ccc(C(=O)O)cc4)c4nc(c(-c5ccc(C(=O)O)cc5)c5ccc2[n-]5)C=C4)C=C3)cc1.[Fe+2] | drastically reduced inhibitory activity | – |
| O=C(O)c1ccc(-c2c3nc(c(-c4ccc(C(=O)O)cc4)c4ccc([n-]4)c(-c4ccc(C(=O)O)cc4)c4nc(c(-c5ccc(C(=O)O)cc5)c5ccc2[n-]5)C=C4)C=C3)cc1.[Co+2] | drastically reduced inhibitory activity | – |
| O=C1OC(=O)C2C3c4ccccc4C(c4ccccc43)C12 (stereo not shown) [compound 106] | – | Inhibitory activity ([3]; Table 1, reaction between HIV-1 gp120 and anti-V3 loop antibodies): +; inhibition at 50 µg/mL ([3]; read-out: percentage of inhibition): 77.5%; EC50 (HIV-1; read-out: EC50 (concentration at which the production of P24 was reduced to 50% of that detected in control cultures)): 18 µg/mL (≈ 65.1 µM); inhibition (HIV-1; read-out: percentage of inhibition of P24 nucleoprotein production): 82% |
